Measured values published in PubChem BioAssay (NCI).
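1) Cells in 96-well plates. 2) Compound, 48 h, 5 concentrations. 3) Linear interpolation between surrounding doses. 4) Unreached endpoint = highest concentration. TGI is the concentration that stops growth completely.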

Experiments:
Assay in all cases: NCI tumour cell line growth inhibition, 48 h
[1] = system: SF-539 CNS
[2] = system: SK-MEL-28 melanoma
[3] = system: SR leukemia
[4] = system: SF-295 CNS
[5] = system: SK-MEL-2 melanoma
[6] = system: MALME-3M melanoma
[7] = system: SW-620 colon
[8] = system: SNB-19 CNS
[9] = system: UACC-257 melanoma
[10] = system: HOP-18 NSCLC
[11] = system: ACHN renal
[12] = system: U251 CNS
[13] = system: SNB-78 CNS
[14] = system: HCC-2998 colon
[15] = system: TK-10 renal
[16] = system: OVCAR-8 ovarian
[17] = system: HCT-116 colon
[18] = system: EKVX NSCLC
[19] = system: A549 NSCLC
[20] = system: NCI-H460 lung
[21] = system: RPMI-8226 leukemia
[22] = system: M14 melanoma
[23] = system: MOLT-4 leukemia
[24] = system: DLD-1 colon
[25] = system: SF-268 CNS
[26] = system: NCI-H23 lung
[27] = system: HCT-15 colon
[28] = system: SN12C renal
[29] = system: M19-MEL melanoma
[30] = system: UACC-62 melanoma
[31] = system: CCRF-CEM leukemia
[32] = system: KM12 colon
[33] = system: SK-MEL-5 melanoma
[34] = system: SNB-75 CNS
[35] = system: SK-OV-3 ovarian
[36] = system: KM20L2 colon
[37] = system: A498 renal
[38] = system: LXFL 529 NSCLC
[39] = system: OVCAR-5 ovarian
[40] = system: HOP-92 NSCLC
[41] = system: COLO 205 colon
[42] = system: HL-60(TB) leukemia
[43] = system: UO-31 renal
[44] = system: HT29 colon
[45] = system: OVCAR-3 ovarian
[46] = system: NCI-H522 lung
[47] = system: LOX IMVI melanoma
[48] = system: XF 498 CNS
[49] = system: IGROV1 ovarian
[50] = system: RXF-631 renal

**Q.** How did the TGI [1] turn out when `CC(C)(C)[Si](OC1CCOC1=O)(c1ccccc1)c1ccccc1` (stereo not given) was run?
**A.** The TGI was 72.3 µM.

**Q.** And the TGI [2]?
**A.** The TGI was 62.6 µM.

**Q.** And the TGI [3]?
**A.** The TGI was over 10 µM.

**Q.** What about the TGI [4] of the same compound?
**A.** Its TGI is 60.2 µM.

**Q.** And the TGI [5]?
**A.** The TGI was 32.5 µM.

**Q.** What about the TGI [6] of the same compound?
**A.** Its TGI is 45.1 µM.

**Q.** What about the TGI [7] of the same compound?
**A.** The TGI was over 100 µM.

**Q.** What about the TGI [8] of the same compound?
**A.** Its TGI is over 100 µM.

**Q.** And the TGI [9]?
**A.** Its TGI is 50.4 µM.

**Q.** And the TGI [10]?
**A.** The TGI was 80.9 µM.

**Q.** What about the TGI [11] of the same compound?
**A.** Its TGI is 99.6 µM.

**Q.** What about the TGI [12] of the same compound?
**A.** The TGI was 30.1 µM.

**Q.** And the TGI [13]?
**A.** The TGI was over 100 µM.

**Q.** And the TGI [14]?
**A.** Its TGI is 47 µM.

**Q.** And the TGI [15]?
**A.** Its TGI is 84.6 µM.

**Q.** And the TGI [16]?
**A.** The TGI was 70.9 µM.

**Q.** And the TGI [17]?
**A.** Its TGI is 26.6 µM.

**Q.** What about the TGI [18] of the same compound?
**A.** The TGI was over 100 µM.

**Q.** And the TGI [19]?
**A.** Its TGI is 62.7 µM.

**Q.** What about the TGI [20] of the same compound?
**A.** The TGI was 49.3 µM.

**Q.** And the TGI [21]?
**A.** The TGI was over 100 µM.

**Q.** And the TGI [22]?
**A.** The TGI was 38.4 µM.

**Q.** What about the TGI [23] of the same compound?
**A.** Its TGI is 59 µM.

**Q.** And the TGI [24]?
**A.** The TGI was over 100 µM.

**Q.** What about the TGI [25] of the same compound?
**A.** Its TGI is over 100 µM.

**Q.** And the TGI [26]?
**A.** Its TGI is 77.1 µM.

**Q.** What about the TGI [27] of the same compound?
**A.** Its TGI is 61.5 µM.

**Q.** What about the TGI [28] of the same compound?
**A.** Its TGI is 33.5 µM.

**Q.** What about the TGI [29] of the same compound?
**A.** Its TGI is 39.1 µM.

**Q.** And the TGI [30]?
**A.** The TGI was 29.3 µM.

**Q.** And the TGI [31]?
**A.** Its TGI is over 100 µM.

**Q.** What about the TGI [32] of the same compound?
**A.** Its TGI is over 10 µM.

**Q.** What about the TGI [33] of the same compound?
**A.** The TGI was 26.1 µM.

**Q.** What about the TGI [34] of the same compound?
**A.** Its TGI is over 100 µM.

**Q.** What about the TGI [35] of the same compound?
**A.** Its TGI is over 100 µM.

**Q.** What about the TGI [36] of the same compound?
**A.** Its TGI is 35.6 µM.

**Q.** What about the TGI [37] of the same compound?
**A.** The TGI was 63.8 µM.

**Q.** And the TGI [38]?
**A.** Its TGI is over 100 µM.

**Q.** And the TGI [39]?
**A.** The TGI was over 100 µM.

**Q.** And the TGI [40]?
**A.** Its TGI is over 10 µM.

**Q.** What about the TGI [41] of the same compound?
**A.** Its TGI is over 10 µM.

**Q.** What about the TGI [42] of the same compound?
**A.** Its TGI is over 100 µM.

**Q.** And the TGI [43]?
**A.** Its TGI is over 100 µM.

**Q.** And the TGI [44]?
**A.** The TGI was 32.3 µM.

**Q.** And the TGI [45]?
**A.** The TGI was 27.1 µM.

**Q.** What about the TGI [46] of the same compound?
**A.** Its TGI is 38 µM.

**Q.** What about the TGI [47] of the same compound?
**A.** The TGI was 32.2 µM.

**Q.** What about the TGI [48] of the same compound?
**A.** The TGI was 24.2 µM.

**Q.** And the TGI [49]?
**A.** Its TGI is over 100 µM.

**Q.** What about the TGI [50] of the same compound?
**A.** The TGI was 98.8 µM.
